Measured values as given in patent US6077840A, “Tetrahydrobenzindolone derivatives” (Meiji Seika Kaisha, Ltd., priority 1996, dated 2000).

target: T1, progesterone receptor (Sus scrofa, UniProt D0EWS6); assay: progesterone receptor binding inhibition ([^3 H]-progesterone, hog uterus cytosol); design: species or system hogs; settings: [^3 H]-progesterone ligand, 60 min at 4° C., read-out: Inhibitory activity against progesterone receptor binding (IC50)
T1 construct: thereby preparing a cytosol containing progesterone receptor; from tissue; host or cells: hog uterus, cytosol (100,000×g supernatant)
T1 sequence (D0EWS6 1-934): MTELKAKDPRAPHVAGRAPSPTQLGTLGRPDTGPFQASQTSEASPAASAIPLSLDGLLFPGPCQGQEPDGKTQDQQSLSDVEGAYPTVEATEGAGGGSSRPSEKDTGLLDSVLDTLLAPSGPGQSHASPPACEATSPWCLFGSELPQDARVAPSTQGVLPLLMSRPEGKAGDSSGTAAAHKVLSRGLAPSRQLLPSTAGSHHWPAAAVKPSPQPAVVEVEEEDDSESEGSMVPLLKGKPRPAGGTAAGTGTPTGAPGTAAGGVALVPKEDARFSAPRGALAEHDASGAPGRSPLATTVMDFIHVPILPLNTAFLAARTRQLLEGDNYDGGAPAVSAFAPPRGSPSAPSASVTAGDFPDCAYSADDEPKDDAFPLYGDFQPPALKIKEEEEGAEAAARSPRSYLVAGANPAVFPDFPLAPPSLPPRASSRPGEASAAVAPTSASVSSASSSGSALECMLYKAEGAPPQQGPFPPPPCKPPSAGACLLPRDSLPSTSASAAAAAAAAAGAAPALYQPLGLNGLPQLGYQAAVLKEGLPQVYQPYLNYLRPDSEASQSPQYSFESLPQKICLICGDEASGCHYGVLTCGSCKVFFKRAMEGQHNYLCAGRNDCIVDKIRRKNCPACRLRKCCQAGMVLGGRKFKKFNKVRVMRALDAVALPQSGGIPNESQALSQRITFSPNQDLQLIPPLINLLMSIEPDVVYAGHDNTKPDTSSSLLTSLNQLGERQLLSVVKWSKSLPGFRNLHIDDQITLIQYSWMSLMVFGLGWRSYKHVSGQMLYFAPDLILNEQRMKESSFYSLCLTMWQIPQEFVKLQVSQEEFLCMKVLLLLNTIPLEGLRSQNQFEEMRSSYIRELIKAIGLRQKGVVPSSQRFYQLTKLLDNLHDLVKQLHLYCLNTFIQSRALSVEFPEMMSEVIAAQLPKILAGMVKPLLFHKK
Experimental: Uteri taken from hogs in 5 mM phosphate buffer were disrupted using Polytron homogenizer, and the resulting solution was centrifuged (100,000×g, 30 min) to separate the supernatant, thereby preparing a cytosol containing progesterone receptor. […] Then, 100 μl of a 0.5% activated carbon solution was added to the reaction solution, and the mixture was allowed to stand for 10 min and then centrifuged (2,000×g, 10 min). The radioactivity of the supernatant was measured with a liquid scintillation counter.
Separately, the radioactivity was measured in the same manner as described above, except that no test drug was added. Further, the radioactivity was measured in the same manner as described above, except that 10 μl of Medroxyprogesterone Acetate (MPA) (10 μg/ml) was added instead of the test drug. The radioactivity with no test drug added was defined as the amount of total binding of [^3 H]-progesterone to the cytosol, and the radioactivity with MPA added was defined as the amount of non-specific binding. The inhibition ratio was calculated from these measured values by the following equation to determine the binding inhibitory activity (IC50).
Inhibition ratio (%)= [formula]

SMILES | IC50 [µM]
CCC(=O)O[C@H]1[C@H](OC(C)=O)C=C2C=C3C(=C(C)C(=O)N3C)C[C@]2(C)[C@H]1C [Example 3, (4aR,5R,6R,7R)-7-Acetoxy-6-propionyloxy-4a,5,6,7-tetrahydro-1,3,4a,5-tetramethylbenz[f]indol-2(4H)-one] | 0.028
CC(=O)O[C@@H]1C=C2C=C3C(=C(C)C(=O)N3C)C[C@]2(C)[C@@H](C)[C@H]1OC(=O)c1ccco1 [Example 4, (4aR,5R,6R,7R)-7-Acetoxy-6-(2-furancarbonyloxy)-4a,5,6,7-tetrahydro-1,3,4a,5-tetramethylbenz[f]indol-2(4H)-one] | 0.032
CO[C@@H]1C=C2C=C3C(=C(C)C(=O)N3C)C[C@]2(C)[C@@H](C)[C@H]1OC(C)=O [Example 25, (4aR,5R,6R,7R)-6-Acetoxy-7-methoxy-4a,5,6,7-tetrahydro-1,3,4a,5-tetramethylbenz[f]indol-2(4H)-one] | 0.025
CCC(=O)O[C@H]1[C@H](OC)C=C2C=C3C(=C(C)C(=O)N3C)C[C@]2(C)[C@H]1C [Example 26, (4aR,5R,6R,7R)-7-Methoxy-6-propionyloxy-4a,5,6,7-tetrahydro-1,3,4a,5-tetramethylbenz[f]indol-2(4H)-one] | 0.017
CO[C@@H]1C=C2C=C3C(=C(C)C(=O)N3C)C[C@]2(C)[C@@H](C)[C@H]1OC(=O)c1cccs1 [Example 31, (4aR,5R,6R,7R)-7-Methoxy-4a,5,6,7-tetrahydro-1,3,4a,5-tetramethyl-6-(2-thiophenecarbonyloxy)benz[f]indol-2(4H)-one] | 0.047
CO[C@@H]1C=C2C=C3C(=C(C)C(=O)N3C)C[C@]2(C)[C@@H](C)[C@H]1OC(=O)c1ccco1 [Example 32, (4aR,5R,6R,7R)-6-(2-Furancarbonyloxy)-7-methoxy-4a,5,6,7-tetrahydro-1,3,4a,5-tetramethylbenz[f]indol-2(4H)-one] | 0.027
CO[C@H]1[C@H](OC)C=C2C=C3C(=C(C)C(=O)N3C)C[C@]2(C)[C@H]1C [Example 34, (4aR,5R,6R,7R)-6,7-Dimethoxy-4a,5,6,7-tetrahydro-1,3,4a,5-tetramethylbenz[f]indol-2(4H)-one] | 0.042
CCO[C@H]1[C@H](OC)C=C2C=C3C(=C(C)C(=O)N3C)C[C@]2(C)[C@H]1C [Example 35, (4aR,5R,6R,7R)-6-Ethoxy-7-methoxy-4a,5,6,7-tetrahydro-1,3,4a,5-tetramethylbenz[f]indol-2(4H)-one] | 0.036
CCCO[C@H]1[C@H](OC)C=C2C=C3C(=C(C)C(=O)N3C)C[C@]2(C)[C@H]1C [Example 36, (4aR,5R,6R,7R)-7-Methoxy-6-propoxy-4a,5,6,7-tetrahydro-1,3,4a,5-tetramethylbenz[f]indol-2(4H)-one] | 0.051
C=CCO[C@H]1[C@H](OC)C=C2C=C3C(=C(C)C(=O)N3C)C[C@]2(C)[C@H]1C [Example 41, (4aR,5R,6R,7R)-7-Methoxy-6-(2-propenyloxy)-4a,5,6,7-tetrahydro-1,3,4a,5-tetramethylbenz[f]indol-2(4H)-one] | 0.044
CCC(=O)O[C@H]1[C@H](SC)C=C2C=C3C(=C(C)C(=O)N3C)C[C@]2(C)[C@H]1C [Example 97, (4aR,5R,6R,7R)-7-Methylthio-6-propionyloxy-4a,5,6,7-tetrahydro-1,3,4a,5-tetramethylbenz[f]indol-2(4H)-one] | 0.064
CS[C@@H]1C=C2C=C3C(=C(C)C(=O)N3C)C[C@]2(C)[C@@H](C)[C@H]1OC(=O)n1ccnc1 [Example 99, (4aR,5R,6R,7R)-6-(Imidazol-1-ylcarbonyloxy)-7-methylthio-4a,5,6,7-tetrahydro-1,3,4a,5-tetramethylbenz[f]indol-2(4H)-one] | 0.066
CCS[C@@H]1C=C2C=C3C(=C(C)C(=O)N3C)C[C@]2(C)[C@@H](C)[C@H]1O [Example 100, (4aR,5R,6R,7R)-7-Ethylthio-6-hydroxy-4a,5,6,7-tetrahydro-1,3,4a,5-tetramethrlbenz[f]indol-2(4H)-one] | 0.119
CCS[C@@H]1C=C2C=C3C(=C(C)C(=O)N3C)C[C@]2(C)[C@@H](C)[C@H]1OC(=O)CC [Example 101, (4aR,5R,6R,7R)-7-Ethylthio-6-propionyloxy-4a,5,6,7-tetrahydro-1,3,4a,5-tetramethylbenz[f]indol-2(4H)-one] | 0.164
CCS[C@@H]1C=C2C=C3C(=C(C)C(=O)N3C)C[C@]2(C)[C@@H](C)[C@H]1OC(=O)n1ccnc1 [Example 106, (4aR,5R,6R,7R)-7-Ethylthio-6-(imidazol-1-ylcarbonyloxy)-4a,5,6,7-tetrahydro-1,3,4a,5-tetramethylbenz[f]indol-2(4H)-one] | 0.137
CCCNC(=O)O[C@H]1[C@H](SCC)C=C2C=C3C(=C(C)C(=O)N3C)C[C@]2(C)[C@H]1C [Example 107, (4aR,5R,6R,7R)-7-Ethylthio-6-propylcarbamoyloxy-4a,5,6,7-tetrahydro-1,3,4a,5-tetramethylbenz[f]indol-2(4H)-one] | 0.156
CCS[C@@H]1C=C2C=C3C(=C(C)C(=O)N3C)C[C@]2(C)[C@@H](C)[C@H]1OC(=O)N1CCCC1 [Example 108, (4aR,5R,6R,7R)-7-Ethylthio-6-(pyrrolidin-1-ylcarbonyloxy)-4a,5,6,7-tetrahydro-1,3,4a,5-tetramethylbenz[f]indol-2(4H)-one] | 0.155
CCC(=O)O[C@H]1CC=C2C=C3C(=C(C)C(=O)N3C)C[C@]2(C)[C@H]1C [Example 113, (4aR,5R,6S)-6-Propionyloxy-4a,5,6,7-tetrahydro-1,3,4a,5-tetramethylbenz[f]indol-2(4H)-one] | 0.099
CC1=C2C[C@@]3(C)C(=CC[C@H](OC(=O)n4ccnc4)[C@@H]3C)C=C2N(C)C1=O [Example 115, (4aR,5R,6S)-6-(Imidazol-1-ylcarbonyloxy)-4a,5,6,7-tetrahydro-1,3,4a,5-tetramethylbenz[f]indol-2(4H)-one] | 0.022
CCCNC(=O)O[C@H]1CC=C2C=C3C(=C(C)C(=O)N3C)C[C@]2(C)[C@H]1C [Example 116, (4aR,5R,6S)-6-Propylcarbamoyloxy-4a,5,6,7-tetrahydro-1,3,4a,5-tetramethylbenz[f]indol-2(4H)-one] | 0.019
CC1=C2C[C@@]3(C)C(=CC[C@H](OC(=O)N4CCCC4)[C@@H]3C)C=C2N(C)C1=O [Example 117, (4aR,5R,6S)-6-(Pyrrolidin-1-ylcarbonyloxy)-4a,5,6,7-tetrahydro-1,3,4a,5-tetramethylbenz[f]indol-2(4H)-one] | 0.031

test system: not listed separately; assay: Test on Toxicity upon Continuous Administration; assay type: in vivo; settings: 60 mg/kg, subcutaneous, 16 week-old male SD rats (five)
Experimental: A homogeneous suspension of the compound, according to the present invention, prepared in Example 8 in a 0.2% aqueous methyl cellulose solution was subcutaneously administered to 16 week-old male SD rats (five rats). The dose of the compound prepared in Example 8 was 60 mg/kg.

SMILES | special symptoms | survival of rats
CCC(=O)O[C@H]1[C@H](OC(=O)CC)C=C2C=C3C(=C(C)C(=O)N3C)C[C@]2(C)[C@H]1C [Example 8, (4aR,5R,6R,7R)-6,7-Dipropionyloxy-4a,5,6,7-tetrahydro-1,3,4a,5-tetramethylbenz[f]indol-2(4H)-one] | without no special symptom | All the rats remained survived
